Source: ChEMBL document CHEMBL1201862, “PubChem BioAssay data set” (2004)
The source made the active and inactive calls.

Columns and labels:
[1] = biological target: T1, Carboxy-terminal domain RNA polymerase II polypeptide A small phosphatase 1 (Homo sapiens, UniProt Q9GZU7); test: inhibitors of CTDSP1, concentration-response testing, biochemical assay, absorbance-based, actives from ultra-high-throughput screening (AID 540297); format: functional
T1 sequence (Q9GZU7 whole entry): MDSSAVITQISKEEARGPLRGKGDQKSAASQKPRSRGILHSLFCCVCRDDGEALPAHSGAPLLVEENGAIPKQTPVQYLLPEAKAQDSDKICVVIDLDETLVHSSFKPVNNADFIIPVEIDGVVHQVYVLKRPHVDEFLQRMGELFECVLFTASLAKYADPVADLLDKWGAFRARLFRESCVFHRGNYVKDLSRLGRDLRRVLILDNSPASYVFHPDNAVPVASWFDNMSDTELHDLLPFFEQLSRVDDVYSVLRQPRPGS

BJ [2] = test: cytotoxicity toward BJ-TERT fibroblasts, dose response, cell-based, RAS-independent, luminescence (AID 1933); format: functional; conditions: Homo sapiens
BJ [3] = test: cells; format: functional, cell-based; conditions: Homo sapiens
BJ [4] = test: cytotoxicity toward BJ-TERT-LT-ST fibroblasts, dose response, cell-based, RAS-independent, luminescence (AID 1935); format: functional; conditions: Homo sapiens;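 also: BJ fibroblasts immortalized with TERT plus LT and ST oncogenes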
[5] = cytotoxicity toward DRD oncogenic fibroblasts, dose response, cell-based, non-viral oncogenic, luminescence (AID 1934); format: functional; conditions: Homo sapiens
[6] = biological target: T2, Heat shock factor protein 1 (Mus musculus, UniProt P38532); test: inhibition of MG132-induced HSE-luciferase signal, confirmation, cell-based, NIH3T3, luminescence, dose retest (AID 2382); format: functional;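 also: NIH3T3 fibroblasts with HSF1-driven luciferase reporter stressed by proteasome inhibitor MG132; luminescence from HSF1-driven luciferase expression after 8 hours of MG132 stress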
T2 sequence (P38532 whole entry): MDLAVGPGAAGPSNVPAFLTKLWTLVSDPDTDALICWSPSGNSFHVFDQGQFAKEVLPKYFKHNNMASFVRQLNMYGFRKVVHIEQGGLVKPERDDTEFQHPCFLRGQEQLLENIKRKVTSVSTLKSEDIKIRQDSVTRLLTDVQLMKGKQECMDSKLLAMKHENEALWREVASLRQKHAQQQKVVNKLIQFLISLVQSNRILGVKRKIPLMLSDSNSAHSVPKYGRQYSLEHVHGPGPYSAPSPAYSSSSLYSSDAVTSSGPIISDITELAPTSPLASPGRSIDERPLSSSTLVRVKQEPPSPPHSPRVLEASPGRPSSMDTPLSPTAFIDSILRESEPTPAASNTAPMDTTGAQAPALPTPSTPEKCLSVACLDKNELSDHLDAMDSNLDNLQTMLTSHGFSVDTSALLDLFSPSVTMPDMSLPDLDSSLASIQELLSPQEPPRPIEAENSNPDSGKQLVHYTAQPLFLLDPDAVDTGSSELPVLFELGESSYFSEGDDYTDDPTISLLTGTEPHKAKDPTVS

P388/ADR = test: cells; format: functional; conditions: Mus musculus, P388/ADR
SN12K1 = test: cells; format: functional; conditions: Homo sapiens, SN12K1
P388 = test: cells; format: functional; conditions: Mus musculus, P388
cells [7] = format: functional, cell-based
[8] = Luminescence Cell-Based Dose Confirmation HTS to Identify Inhibitors of Platelet Dense Granule Release. [Related pubchem assays: 1663 (Primary HTS), 1678 (Summary of Project)]; format: functional
[9] = biological target: Luciferin 4-monooxygenase (Photinus pyralis, UniProt P08659); test: firefly luciferase enzyme inhibitors, dose response, biochemical, luminescence (AID 1891)
cells [10] = format: functional, cell-based; remark: listed apart in the source
[11] = biological target: T3, Histone-lysine N-methyltransferase NSD2 (Homo sapiens, UniProt O96028); format: biochemical
T3 sequence (O96028 whole entry): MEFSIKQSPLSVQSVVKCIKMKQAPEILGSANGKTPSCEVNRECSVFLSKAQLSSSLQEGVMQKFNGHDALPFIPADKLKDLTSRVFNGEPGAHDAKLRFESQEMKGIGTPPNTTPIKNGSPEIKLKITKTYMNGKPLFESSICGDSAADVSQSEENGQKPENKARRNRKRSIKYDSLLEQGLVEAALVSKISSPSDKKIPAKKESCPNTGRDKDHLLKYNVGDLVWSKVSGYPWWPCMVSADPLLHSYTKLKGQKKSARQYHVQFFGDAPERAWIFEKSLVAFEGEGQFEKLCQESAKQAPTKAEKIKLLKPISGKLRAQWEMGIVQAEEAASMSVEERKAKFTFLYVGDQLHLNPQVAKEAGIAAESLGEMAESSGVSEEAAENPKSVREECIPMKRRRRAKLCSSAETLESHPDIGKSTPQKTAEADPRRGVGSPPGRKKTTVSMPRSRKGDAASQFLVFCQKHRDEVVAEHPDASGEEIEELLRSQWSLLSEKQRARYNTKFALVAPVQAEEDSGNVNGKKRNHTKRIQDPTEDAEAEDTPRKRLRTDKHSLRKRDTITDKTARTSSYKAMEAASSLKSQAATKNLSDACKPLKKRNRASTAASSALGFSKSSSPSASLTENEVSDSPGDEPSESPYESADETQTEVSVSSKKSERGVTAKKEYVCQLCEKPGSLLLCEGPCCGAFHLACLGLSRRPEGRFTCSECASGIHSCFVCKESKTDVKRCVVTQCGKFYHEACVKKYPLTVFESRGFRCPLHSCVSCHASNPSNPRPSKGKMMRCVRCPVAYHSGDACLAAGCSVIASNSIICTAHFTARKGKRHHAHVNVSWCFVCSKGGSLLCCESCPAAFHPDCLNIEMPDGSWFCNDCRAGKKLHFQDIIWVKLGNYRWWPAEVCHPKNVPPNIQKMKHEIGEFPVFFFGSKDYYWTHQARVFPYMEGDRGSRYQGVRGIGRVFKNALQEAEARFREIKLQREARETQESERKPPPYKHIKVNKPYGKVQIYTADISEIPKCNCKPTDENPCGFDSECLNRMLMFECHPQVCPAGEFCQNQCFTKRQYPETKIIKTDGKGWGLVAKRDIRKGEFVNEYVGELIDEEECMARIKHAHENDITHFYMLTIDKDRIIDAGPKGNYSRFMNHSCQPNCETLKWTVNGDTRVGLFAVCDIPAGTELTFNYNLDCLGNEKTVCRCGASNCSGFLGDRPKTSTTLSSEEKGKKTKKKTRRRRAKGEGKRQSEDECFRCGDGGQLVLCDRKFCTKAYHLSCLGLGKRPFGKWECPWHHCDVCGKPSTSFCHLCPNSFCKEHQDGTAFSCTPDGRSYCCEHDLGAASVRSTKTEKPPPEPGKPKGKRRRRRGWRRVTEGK

Sequence of Luciferin 4-monooxygenase (P08659 whole entry): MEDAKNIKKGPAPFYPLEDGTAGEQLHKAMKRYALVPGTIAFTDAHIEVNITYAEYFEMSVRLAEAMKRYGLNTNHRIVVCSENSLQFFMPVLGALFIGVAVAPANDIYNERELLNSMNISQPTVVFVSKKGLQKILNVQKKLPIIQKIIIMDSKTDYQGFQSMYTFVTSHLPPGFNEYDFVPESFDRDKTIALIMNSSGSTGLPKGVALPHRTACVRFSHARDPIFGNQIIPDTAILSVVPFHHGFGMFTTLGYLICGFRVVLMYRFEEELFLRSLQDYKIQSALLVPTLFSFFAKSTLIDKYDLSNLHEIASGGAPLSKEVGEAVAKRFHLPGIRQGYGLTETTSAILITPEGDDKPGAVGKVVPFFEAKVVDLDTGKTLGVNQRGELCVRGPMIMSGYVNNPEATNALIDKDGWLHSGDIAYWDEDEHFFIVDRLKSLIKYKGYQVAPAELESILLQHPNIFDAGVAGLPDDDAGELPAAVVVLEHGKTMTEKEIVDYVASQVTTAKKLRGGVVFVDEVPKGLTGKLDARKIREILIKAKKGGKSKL

Cc1ccc(OCC(=O)NNC(=O)Cn2nnc(-c3ccccc3)n2)cc1
IC50 [1]: 12.7 µM (active)

O=C(O)c1ccc(CN2C(=O)c3cccc4c([N+](=O)[O-])ccc(c34)C2=O)cc1
EC50 (BJ [2]): 9.19 µM (active) | EC50 (BJ [3]): 12.9 µM (active) | EC50 (BJ [4]): 10.6 µM (inconclusive) | EC50 [5]: 10.9 µM (inconclusive) | EC50 [6]: 6.53 µM (active)

CCCCCCCCCOCC(COP(=O)([O-])OCC[N+](C)(C)C)OC (centres undefined)
GI50 (P388/ADR): > 100 µM (inactive) | GI50 (SN12K1): > 100 µM (inactive) | GI50 (P388): 99.1 µM (inactive)

Nc1ccn(C2CCC(CO)O2)c(=O)n1 (centres undefined)
GI50 (P388/ADR): > 80.4 µM (inactive) | GI50 (SN12K1): > 100 µM (inactive) | GI50 (P388): > 100 µM (inactive)

Cn1c(N/N=C/c2cc3ccccc3nc2Cl)nc2ccccc21
EC50 (BJ [2]): 6.15 µM (inconclusive) | EC50 (BJ [3]): 2.58 µM (active) | EC50 (BJ [4]): > 150 µM (not active) | EC50 (cells [7]): > 350 µM (not active) | EC50 [8]: 6.52 µM (active) | EC50 [5]: 25.7 µM (active) | EC50 [9]: 0.687 µM (active) | EC50 (cells [10]): 7.59 µM (active)

O=C1c2cc(O)c(O)cc2OC(c2ccc(O)c(O)c2)C1O (centres undefined)
AC50 [11]: 12.9 µM (active)

CC[C@]1(O)C[C@H]2CN(CCc3c([nH]c4ccccc34)[C@@](C(=O)OC)(c3cc4c(cc3OC)N(C)[C@H]3[C@@](O)(C(=O)OC)[C@H](OC(C)=O)[C@]5(CC)C=CCN6CC[C@]43[C@@H]65)C2)C1
GI50 (P388/ADR): 0.103 µM (active) | GI50 (SN12K1): 0.000348 µM (active) | GI50 (P388): 0.000674 µM (active)

O=C1CNC(=O)N1 [HYDANTOIN]
GI50 (P388/ADR): 706 µM (inactive) | GI50 (SN12K1): > 1120 µM (inactive) | GI50 (P388): 630 µM (inactive)

CC(C)NC(=O)OCc1c2c(n(C)c1COC(=O)NC(C)C)-c1ccccc1CC2
GI50 (P388/ADR): 2 µM (inactive) | GI50 (SN12K1): 12 µM (inactive) | GI50 (P388): 1.79 µM (inactive)

O=C1N[C@@H]2C(=C[C@H](O)[C@@H](O)[C@H]2O)c2cc3c(c(O)c21)OCO3 [NARCICLASINE]
GI50 (P388/ADR): 0.045 µM (active) | GI50 (SN12K1): 0.045 µM (active) | GI50 (P388): 0.045 µM (active)

CC(/C=C/c1ccco1)=N\NC(=O)c1cc(Cl)ccc1O
IC50 [1]: 10.7 µM (active)
